Source: ChEMBL document CHEMBL4043074, “Bortezomib inhibits mammalian carbonic anhydrases” (Bioorg Med Chem, 2017)

Columns and labels:
[1] = target: Carbonic anhydrase 5B, mitochondrial (Homo sapiens, UniProt Q9Y2D0); assay: Inhibition of human CA5B by stopped-flow CO2 hydrase assay
Carbonic anhydrase 3 = Carbonic anhydrase 3 (Homo sapiens, UniProt P07451)
Description: Inhibition of human CA3 by stopped-flow CO2 hydrase assay

Carbonic anhydrase 13 = Carbonic anhydrase 13 (Homo sapiens, UniProt Q8N1Q1); assay: Inhibition of human CA13 by stopped-flow CO2 hydrase assay
Chain of Carbonic anhydrase 13 (Q8N1Q1 whole entry): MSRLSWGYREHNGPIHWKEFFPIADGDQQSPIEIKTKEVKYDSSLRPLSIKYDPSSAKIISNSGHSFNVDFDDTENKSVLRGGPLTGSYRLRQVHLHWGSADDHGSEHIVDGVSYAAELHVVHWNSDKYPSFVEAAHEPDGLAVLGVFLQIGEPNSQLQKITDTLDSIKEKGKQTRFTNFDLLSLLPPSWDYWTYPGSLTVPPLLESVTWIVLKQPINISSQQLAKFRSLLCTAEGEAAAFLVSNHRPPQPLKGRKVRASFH

Carbonic anhydrase 9 = Carbonic anhydrase 9 (Homo sapiens, UniProt Q16790)
Description: Inhibition of human CA9 by stopped-flow CO2 hydrase assay

Carbonic anhydrase 4 = Carbonic anhydrase 4 (Homo sapiens, UniProt P22748); assay: Inhibition of human CA4 by stopped-flow CO2 hydrase assay
Chain of Carbonic anhydrase 4 (P22748 whole entry): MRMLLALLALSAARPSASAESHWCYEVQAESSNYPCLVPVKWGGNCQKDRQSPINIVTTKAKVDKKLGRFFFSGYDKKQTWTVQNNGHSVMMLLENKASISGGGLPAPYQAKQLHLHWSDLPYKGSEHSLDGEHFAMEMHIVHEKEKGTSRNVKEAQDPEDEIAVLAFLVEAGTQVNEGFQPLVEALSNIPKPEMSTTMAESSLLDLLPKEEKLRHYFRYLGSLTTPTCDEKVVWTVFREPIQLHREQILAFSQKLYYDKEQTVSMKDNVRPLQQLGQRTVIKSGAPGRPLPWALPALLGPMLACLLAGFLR

[2] = target: Carbonic anhydrase 5A, mitochondrial (Homo sapiens, UniProt P35218); assay: Inhibition of human CA5A by stopped-flow CO2 hydrase assay
Chain of Carbonic anhydrase 5A, mitochondrial (P35218 whole entry): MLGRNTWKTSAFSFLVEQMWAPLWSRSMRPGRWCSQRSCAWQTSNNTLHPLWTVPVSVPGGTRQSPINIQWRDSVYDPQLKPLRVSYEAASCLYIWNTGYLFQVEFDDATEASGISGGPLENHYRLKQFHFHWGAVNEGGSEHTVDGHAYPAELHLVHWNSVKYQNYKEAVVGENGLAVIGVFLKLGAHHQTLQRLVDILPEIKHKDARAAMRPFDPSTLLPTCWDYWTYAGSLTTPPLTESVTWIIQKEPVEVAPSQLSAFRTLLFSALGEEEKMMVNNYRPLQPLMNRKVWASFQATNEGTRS

Carbonic anhydrase 15 = target: T1, Carbonic anhydrase 15 (Mus musculus, UniProt Q99N23)
T1 sequence (Q99N23 whole entry): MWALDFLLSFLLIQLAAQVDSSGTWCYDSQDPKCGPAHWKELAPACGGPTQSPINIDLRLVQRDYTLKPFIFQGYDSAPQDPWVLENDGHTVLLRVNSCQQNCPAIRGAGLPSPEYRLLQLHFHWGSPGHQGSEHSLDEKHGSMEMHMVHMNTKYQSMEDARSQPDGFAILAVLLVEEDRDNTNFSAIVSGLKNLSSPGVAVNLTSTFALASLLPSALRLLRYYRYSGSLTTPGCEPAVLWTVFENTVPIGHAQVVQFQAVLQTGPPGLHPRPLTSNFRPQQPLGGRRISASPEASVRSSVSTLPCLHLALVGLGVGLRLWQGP
Description: Inhibition of mouse CA15 by stopped-flow CO2 hydrase assay

Carbonic anhydrase 6 = Carbonic anhydrase 6 (Homo sapiens, UniProt P23280)
Chain of Carbonic anhydrase 6 (P23280 whole entry): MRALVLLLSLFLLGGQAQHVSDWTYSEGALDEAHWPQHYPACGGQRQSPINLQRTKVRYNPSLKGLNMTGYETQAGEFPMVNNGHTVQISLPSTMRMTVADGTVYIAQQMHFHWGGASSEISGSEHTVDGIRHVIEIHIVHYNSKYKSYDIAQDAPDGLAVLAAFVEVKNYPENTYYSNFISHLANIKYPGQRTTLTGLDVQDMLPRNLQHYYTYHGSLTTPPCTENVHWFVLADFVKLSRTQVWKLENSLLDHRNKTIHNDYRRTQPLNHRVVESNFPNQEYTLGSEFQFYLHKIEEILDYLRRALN
Description: Inhibition of human CA6 by stopped-flow CO2 hydrase assay

Carbonic anhydrase 12 = Carbonic anhydrase 12 (Homo sapiens, UniProt O43570)
Chain of Carbonic anhydrase 12 (O43570 whole entry): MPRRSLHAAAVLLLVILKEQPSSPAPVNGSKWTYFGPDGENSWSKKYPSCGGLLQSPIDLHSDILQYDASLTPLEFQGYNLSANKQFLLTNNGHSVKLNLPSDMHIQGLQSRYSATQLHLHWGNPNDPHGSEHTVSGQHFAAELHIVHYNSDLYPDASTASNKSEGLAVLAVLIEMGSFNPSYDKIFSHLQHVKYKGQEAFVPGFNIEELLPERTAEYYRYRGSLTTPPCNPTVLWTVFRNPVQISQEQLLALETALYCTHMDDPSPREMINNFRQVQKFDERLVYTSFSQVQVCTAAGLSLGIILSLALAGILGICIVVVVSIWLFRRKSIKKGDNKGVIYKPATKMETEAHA
Description: Inhibition of human CA12 by stopped-flow CO2 hydrase assay

Carbonic anhydrase 14 = Carbonic anhydrase 14 (Homo sapiens, UniProt Q9ULX7); assay: Inhibition of human CA14 by stopped-flow CO2 hydrase assay
Chain of Carbonic anhydrase 14 (Q9ULX7 whole entry): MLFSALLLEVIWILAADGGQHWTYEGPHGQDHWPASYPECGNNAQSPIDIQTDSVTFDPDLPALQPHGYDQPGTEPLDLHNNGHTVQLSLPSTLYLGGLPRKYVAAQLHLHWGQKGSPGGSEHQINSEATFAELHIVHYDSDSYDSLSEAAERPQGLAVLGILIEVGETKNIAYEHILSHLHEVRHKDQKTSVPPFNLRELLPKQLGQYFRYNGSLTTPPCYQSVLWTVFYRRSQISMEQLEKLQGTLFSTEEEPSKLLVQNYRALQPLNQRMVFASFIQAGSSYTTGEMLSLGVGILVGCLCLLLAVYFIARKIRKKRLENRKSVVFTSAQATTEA

Carbonic anhydrase 7 = Carbonic anhydrase 7 (Homo sapiens, UniProt P43166)
Chain of Carbonic anhydrase 7 (P43166 whole entry): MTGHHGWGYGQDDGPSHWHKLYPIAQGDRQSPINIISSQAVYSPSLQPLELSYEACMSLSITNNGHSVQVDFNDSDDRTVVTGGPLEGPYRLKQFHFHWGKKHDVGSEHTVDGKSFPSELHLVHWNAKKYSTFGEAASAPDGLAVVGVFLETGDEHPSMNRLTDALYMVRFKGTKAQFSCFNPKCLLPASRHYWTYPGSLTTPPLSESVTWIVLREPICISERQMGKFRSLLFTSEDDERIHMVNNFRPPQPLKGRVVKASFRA
Description: Inhibition of human CA7 by stopped-flow CO2 hydrase assay

Carbonic anhydrase 1 = Carbonic anhydrase 1 (Homo sapiens, UniProt P00915)
Chain of Carbonic anhydrase 1 (P00915 whole entry): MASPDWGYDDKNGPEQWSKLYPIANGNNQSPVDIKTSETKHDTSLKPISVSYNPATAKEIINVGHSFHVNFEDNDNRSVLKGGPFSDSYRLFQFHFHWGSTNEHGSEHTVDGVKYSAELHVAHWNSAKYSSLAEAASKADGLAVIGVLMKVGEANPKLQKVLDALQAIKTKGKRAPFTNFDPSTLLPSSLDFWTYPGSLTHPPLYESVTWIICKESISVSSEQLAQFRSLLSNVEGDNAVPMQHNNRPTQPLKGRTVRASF
Description: Inhibition of human CA1 by stopped-flow CO2 hydrase assay

Carbonic anhydrase 2 = Carbonic anhydrase 2 (Homo sapiens, UniProt P00918)
Description: Inhibition of human CA2 by stopped-flow CO2 hydrase assay

Chain of Carbonic anhydrase 5B, mitochondrial (Q9Y2D0 whole entry): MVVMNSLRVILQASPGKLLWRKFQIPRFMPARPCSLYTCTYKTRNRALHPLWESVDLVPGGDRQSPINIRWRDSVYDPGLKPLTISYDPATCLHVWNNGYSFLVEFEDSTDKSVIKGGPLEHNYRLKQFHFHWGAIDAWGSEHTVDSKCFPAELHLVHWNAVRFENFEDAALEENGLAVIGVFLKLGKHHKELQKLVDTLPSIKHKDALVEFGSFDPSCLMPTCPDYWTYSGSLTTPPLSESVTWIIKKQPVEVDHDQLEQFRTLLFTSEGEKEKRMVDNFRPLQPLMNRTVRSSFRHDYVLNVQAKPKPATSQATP
Chain of Carbonic anhydrase 3 (P07451 whole entry): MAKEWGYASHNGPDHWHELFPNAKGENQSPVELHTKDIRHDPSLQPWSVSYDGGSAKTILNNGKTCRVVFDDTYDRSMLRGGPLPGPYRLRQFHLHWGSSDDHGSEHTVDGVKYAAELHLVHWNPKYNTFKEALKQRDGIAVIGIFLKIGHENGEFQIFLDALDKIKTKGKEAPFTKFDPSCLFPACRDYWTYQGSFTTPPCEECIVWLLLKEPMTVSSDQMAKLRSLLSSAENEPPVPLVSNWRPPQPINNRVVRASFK

SMILES | Ki [1] [µM] | Ki (Carbonic anhydrase 3) [µM] | Ki (Carbonic anhydrase 13) [µM] | Ki (Carbonic anhydrase 9) [µM] | Ki (Carbonic anhydrase 4) [µM] | Ki [2] [µM] | Ki (Carbonic anhydrase 15) [µM] | Ki (Carbonic anhydrase 6) [µM] | Ki (Carbonic anhydrase 12) [µM] | Ki (Carbonic anhydrase 14) [µM] | Ki (Carbonic anhydrase 7) [µM] | Ki (Carbonic anhydrase 1) [µM] | Ki (Carbonic anhydrase 2) [µM]
CC(C)C[C@H](NC(=O)[C@H](Cc1ccccc1)NC(=O)c1cnccn1)B(O)O [BORTEZOMIB] | 6.83 | 4.57 | 8.45 | 3.38 | 6.51 | 6.92 | 2.68 | 4.38 | 5.87 | 3.28 | 6.94 | – | –
OB(O)c1ccccc1 [PHENYLBORONIC ACID] | > 50 | > 50 | > 50 | > 50 | – | > 50 | – | > 50 | > 50 | > 50 | – | > 50 | > 50
OB1OCc2ccccc21 [BENZOXABOROLE] | – | – | – | > 50 | – | – | – | – | > 50 | – | – | 5.69 | 8.18
